ChEMBL document CHEMBL1136141, “2-Phenyl-5,6-dihydro-2H-thieno[3,2-c]pyrazol-3-ol derivatives as new inhibitors of bacterial cell wall biosynthesis” (Bioorg Med Chem Lett, 2003)
In brackets after ≈: the same amount, converted by molar mass.

test system: not listed separately; experiment: Partition coefficient (logP); type: physicochemical; conditions: octanol/water

Row | Structure (SMILES) | logP
1 | N#Cc1ccc(-n2nc3c(c2O)SCC3)cc1 | 2.53
2 | NC(=O)c1cccc(-n2nc3c(c2O)SCC3)c1 | 1.41
3 | Oc1c2c(nn1-c1ccc(Cl)cc1)CCS2 | 3.06
4 | [O-][S+]1CCc2nn(-c3ccc(Cl)c(Cl)c3)c(O)c21 (stereo not given) | 2.01
5 | Oc1c2c(nn1-c1ccc(Cl)c(Cl)c1)CCS2 | 3.62

test system: Escherichia coli; experiment: Minimum inhibitory activity against Escherichia coli GC 4559; type: functional; conditions: not given

Row | Structure (SMILES) | MIC [µg/mL]
6 | N#Cc1ccc(-n2nc3c(c2O)SCC3)cc1 | > 128
7 | NC(=O)c1cccc(-n2nc3c(c2O)SCC3)c1 | > 128
8 | Oc1c2c(nn1-c1ccc(Cl)cc1)CCS2 | > 128
9 | Oc1c2c(nn1-c1ccc(Cl)c(Cl)c1)CCS2 | > 128
10 | CC1Cc2nn(-c3ccc(Cl)cc3)c(O)c2S1 (stereo not given) | > 128
11 | N#Cc1cccc(-n2nc3c(c2O)SCC3)c1 | > 128

test system: Escherichia coli; experiment: Minimum inhibitory activity against Escherichia coli GC 4560; type: functional; conditions: not given

Row | Structure (SMILES) | MIC [µg/mL]
12 | N#Cc1ccc(-n2nc3c(c2O)SCC3)cc1 | 64 (≈ 263 µM)
13 | NC(=O)c1cccc(-n2nc3c(c2O)SCC3)c1 | 128 (≈ 490 µM)
14 | Oc1c2c(nn1-c1ccc(Cl)cc1)CCS2 | > 128
15 | Oc1c2c(nn1-c1ccc(Cl)c(Cl)c1)CCS2 | 128 (≈ 446 µM)
16 | CC1Cc2nn(-c3ccc(Cl)cc3)c(O)c2S1 (stereo not given) | > 128
17 | N#Cc1cccc(-n2nc3c(c2O)SCC3)c1 | 64 (≈ 263 µM)

test system: Enterococcus faecalis; experiment: Minimum inhibitory activity against Enterococcus faecalis GC 2242 (VRE); type: functional; conditions: not given

Row | Structure (SMILES) | MIC [µg/mL]
18 | N#Cc1ccc(-n2nc3c(c2O)SCC3)cc1 | 8 (≈ 32.9 µM)
19 | NC(=O)c1cccc(-n2nc3c(c2O)SCC3)c1 | 32 (≈ 122 µM)
20 | Oc1c2c(nn1-c1ccc(Cl)cc1)CCS2 | 16 (≈ 63.3 µM)
21 | Oc1c2c(nn1-c1ccc(Cl)c(Cl)c1)CCS2 | 64 (≈ 223 µM)
22 | CC1Cc2nn(-c3ccc(Cl)cc3)c(O)c2S1 (stereo not given) | 2 (≈ 7.5 µM)
23 | N#Cc1cccc(-n2nc3c(c2O)SCC3)c1 | 8 (≈ 32.9 µM)

test system: Enterococcus faecalis; experiment: Minimum inhibitory activity against Enterococcus faecalis GC 4555 (ATCC); type: functional; conditions: not given

Row | Structure (SMILES) | MIC [µg/mL]
24 | N#Cc1ccc(-n2nc3c(c2O)SCC3)cc1 | 8 (≈ 32.9 µM)
25 | NC(=O)c1cccc(-n2nc3c(c2O)SCC3)c1 | 64 (≈ 245 µM)
26 | Oc1c2c(nn1-c1ccc(Cl)cc1)CCS2 | 16 (≈ 63.3 µM)
27 | Oc1c2c(nn1-c1ccc(Cl)c(Cl)c1)CCS2 | 128 (≈ 446 µM)
28 | CC1Cc2nn(-c3ccc(Cl)cc3)c(O)c2S1 (stereo not given) | 32 (≈ 120 µM)
29 | N#Cc1cccc(-n2nc3c(c2O)SCC3)c1 | 8 (≈ 32.9 µM)

test system: Bacteria; experiment: Minimum inhibitory activity against gram negative bacteria; type: functional; conditions: not given

Row | Structure (SMILES) | MIC [µg/mL]
30 | Oc1c2c(nn1-c1ccc(Cl)cc1)COC2 | > 128
31 | [O-][S+]1CCc2nn(-c3ccc(Cl)c(Cl)c3)c(O)c21 (stereo not given) | > 128
32 | Oc1c2c(nn1-c1ccc(Cl)c(Cl)c1)CCCC2 | > 128
33 | O=[N+]([O-])c1ccc(-n2nc3c(c2O)CSCC3)cc1 | > 128
34 | Oc1c2c(nn1-c1ccc(Cl)cc1)CSC2 | > 128
35 | Oc1c2c(nn1-c1ccc(Cl)c(Cl)c1)CSC2 | 32 (≈ 111 µM)

test system: not listed separately; experiment: Minimum inhibitory activity against MSCNS GC 646; type: functional; conditions: Staphylococcus

Row | Structure (SMILES) | MIC [µg/mL]
36 | N#Cc1ccc(-n2nc3c(c2O)SCC3)cc1 | 4 (≈ 16.4 µM)
37 | NC(=O)c1cccc(-n2nc3c(c2O)SCC3)c1 | > 128
38 | Oc1c2c(nn1-c1ccc(Cl)cc1)CCS2 | 4 (≈ 15.8 µM)
39 | Oc1c2c(nn1-c1ccc(Cl)c(Cl)c1)CCS2 | 16 (≈ 55.7 µM)
40 | CC1Cc2nn(-c3ccc(Cl)cc3)c(O)c2S1 (stereo not given) | 16 (≈ 60 µM)
41 | N#Cc1cccc(-n2nc3c(c2O)SCC3)c1 | 2 (≈ 8.22 µM)

test system: not listed separately; experiment: Minimum inhibitory activity against Streptococcus pneumoniae GC1894 (PRSP); type: functional; conditions: not given

Row | Structure (SMILES) | MIC [µg/mL]
42 | N#Cc1ccc(-n2nc3c(c2O)SCC3)cc1 | 4 (≈ 16.4 µM)
43 | NC(=O)c1cccc(-n2nc3c(c2O)SCC3)c1 | 8 (≈ 30.6 µM)
44 | Oc1c2c(nn1-c1ccc(Cl)cc1)CCS2 | 1 (≈ 3.96 µM)
45 | Oc1c2c(nn1-c1ccc(Cl)c(Cl)c1)CCS2 | 4 (≈ 13.9 µM)
46 | CC1Cc2nn(-c3ccc(Cl)cc3)c(O)c2S1 (stereo not given) | 4 (≈ 15 µM)
47 | N#Cc1cccc(-n2nc3c(c2O)SCC3)c1 | 4 (≈ 16.4 µM)

test system: not listed separately; experiment: Minimum inhibitory activity in presence of 4% bovine serum albumin against Streptococcus pneumoniae GC1894 (PRSP); type: functional; conditions: not given

Row | Structure (SMILES) | MIC [µg/mL]
48 | N#Cc1ccc(-n2nc3c(c2O)SCC3)cc1 | > 128
49 | NC(=O)c1cccc(-n2nc3c(c2O)SCC3)c1 | > 128
50 | Oc1c2c(nn1-c1ccc(Cl)cc1)CCS2 | > 128
51 | Oc1c2c(nn1-c1ccc(Cl)c(Cl)c1)CCS2 | > 128
52 | CC1Cc2nn(-c3ccc(Cl)cc3)c(O)c2S1 (stereo not given) | > 128
53 | N#Cc1cccc(-n2nc3c(c2O)SCC3)c1 | > 128

test system: Staphylococcus aureus; experiment: Minimum inhibitory activity against Staphylococcus aureus GC 1131 (MRSA); type: functional; conditions: not given

Row | Structure (SMILES) | MIC [µg/mL]
54 | N#Cc1ccc(-n2nc3c(c2O)SCC3)cc1 | 32 (≈ 132 µM)
55 | NC(=O)c1cccc(-n2nc3c(c2O)SCC3)c1 | 128 (≈ 490 µM)
56 | Oc1c2c(nn1-c1ccc(Cl)cc1)CCS2 | 16 (≈ 63.3 µM)
57 | Oc1c2c(nn1-c1ccc(Cl)c(Cl)c1)CCS2 | 32 (≈ 111 µM)
58 | CC1Cc2nn(-c3ccc(Cl)cc3)c(O)c2S1 (stereo not given) | 16 (≈ 60 µM)
59 | N#Cc1cccc(-n2nc3c(c2O)SCC3)c1 | 32 (≈ 132 µM)

test system: Staphylococcus aureus; experiment: Minimum inhibitory activity against Staphylococcus aureus GC 2216 (ATCC); type: functional; conditions: not given

Row | Structure (SMILES) | MIC [µg/mL]
60 | N#Cc1ccc(-n2nc3c(c2O)SCC3)cc1 | 8 (≈ 32.9 µM)
61 | NC(=O)c1cccc(-n2nc3c(c2O)SCC3)c1 | 128 (≈ 490 µM)
62 | Oc1c2c(nn1-c1ccc(Cl)cc1)CCS2 | 2 (≈ 7.91 µM)
63 | Oc1c2c(nn1-c1ccc(Cl)c(Cl)c1)CCS2 | 8 (≈ 27.9 µM)
64 | CC1Cc2nn(-c3ccc(Cl)cc3)c(O)c2S1 (stereo not given) | 32 (≈ 120 µM)
65 | N#Cc1cccc(-n2nc3c(c2O)SCC3)c1 | 8 (≈ 32.9 µM)

test system: Staphylococcus aureus; experiment: Minimum inhibitory activity against Staphylococcus aureus GC 4543 (MSSA); type: functional; conditions: not given

Row | Structure (SMILES) | MIC [µg/mL]
66 | N#Cc1ccc(-n2nc3c(c2O)SCC3)cc1 | 16 (≈ 65.8 µM)
67 | NC(=O)c1cccc(-n2nc3c(c2O)SCC3)c1 | 64 (≈ 245 µM)
68 | Oc1c2c(nn1-c1ccc(Cl)cc1)CCS2 | 2 (≈ 7.91 µM)
69 | Oc1c2c(nn1-c1ccc(Cl)c(Cl)c1)CCS2 | 8 (≈ 27.9 µM)
70 | CC1Cc2nn(-c3ccc(Cl)cc3)c(O)c2S1 (stereo not given) | 16 (≈ 60 µM)
71 | N#Cc1cccc(-n2nc3c(c2O)SCC3)c1 | 16 (≈ 65.8 µM)

target: T1, UDP-N-acetylmuramate--L-alanine ligase (Staphylococcus aureus, UniProt O31211); experiment: In vitro inhibitory activity against Staphylococcus aureus UDP-N-acetylmuramoyl-L-alanine synthetase; conditions: not given
T1 sequence (O31211 whole entry): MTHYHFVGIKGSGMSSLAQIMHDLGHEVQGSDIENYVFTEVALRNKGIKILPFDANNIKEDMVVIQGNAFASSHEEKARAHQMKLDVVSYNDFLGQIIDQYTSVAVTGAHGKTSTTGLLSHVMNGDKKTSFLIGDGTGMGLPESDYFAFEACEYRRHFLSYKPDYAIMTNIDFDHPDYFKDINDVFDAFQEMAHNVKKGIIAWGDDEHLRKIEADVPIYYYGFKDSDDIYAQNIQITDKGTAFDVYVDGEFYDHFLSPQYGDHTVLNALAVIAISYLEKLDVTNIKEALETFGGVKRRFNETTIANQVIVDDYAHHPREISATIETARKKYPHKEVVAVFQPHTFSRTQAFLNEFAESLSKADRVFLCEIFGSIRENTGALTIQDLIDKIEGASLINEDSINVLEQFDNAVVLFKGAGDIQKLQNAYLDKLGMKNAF

Row | Structure (SMILES) | IC50 [µM]
72 | N#Cc1ccc(-n2nc3c(c2O)SCC3)cc1 | > 103
73 | NC(=O)c1cccc(-n2nc3c(c2O)SCC3)c1 | > 95.7
74 | Oc1c2c(nn1-c1ccc(Cl)cc1)CCS2 | 40
75 | Oc1c2c(nn1-c1ccc(Cl)c(Cl)c1)CCS2 | 24.4
76 | CC1Cc2nn(-c3ccc(Cl)cc3)c(O)c2S1 (stereo not given) | > 93.7
77 | N#Cc1cccc(-n2nc3c(c2O)SCC3)c1 | 54.7

target: T2, UDP-N-acetylenolpyruvoylglucosamine reductase (Staphylococcus aureus, UniProt P61431); experiment: In vitro inhibitory activity against Staphylococcus aureus UDP-N-acetylmuramate dehydrogenase; conditions: not given
T2 sequence (P61431 whole entry): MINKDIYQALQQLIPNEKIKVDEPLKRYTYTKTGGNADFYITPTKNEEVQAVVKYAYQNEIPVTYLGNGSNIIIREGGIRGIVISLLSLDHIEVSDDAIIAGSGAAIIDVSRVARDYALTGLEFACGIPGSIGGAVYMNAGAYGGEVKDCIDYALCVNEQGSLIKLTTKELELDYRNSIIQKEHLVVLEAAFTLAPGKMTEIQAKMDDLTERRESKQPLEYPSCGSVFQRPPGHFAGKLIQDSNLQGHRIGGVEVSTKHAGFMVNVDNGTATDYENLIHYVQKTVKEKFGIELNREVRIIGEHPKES

Row | Structure (SMILES) | IC50 [µM]
78 | N#Cc1ccc(-n2nc3c(c2O)SCC3)cc1 | > 103
79 | Oc1c2c(nn1-c1ccc(Cl)cc1)COC2 | > 106
80 | NC(=O)c1cccc(-n2nc3c(c2O)SCC3)c1 | > 95.7
81 | Oc1c2c(nn1-c1ccc(Cl)cc1)CCS2 | 28.1
82 | [O-][S+]1CCc2nn(-c3ccc(Cl)c(Cl)c3)c(O)c21 (stereo not given) | 66
83 | Oc1c2c(nn1-c1ccc(Cl)c(Cl)c1)CCCC2 | > 88.3
84 | O=[N+]([O-])c1ccc(-n2nc3c(c2O)CSCC3)cc1 | > 90.2
85 | Oc1c2c(nn1-c1ccc(Cl)c(Cl)c1)CCS2 | 38.3
86 | CC1Cc2nn(-c3ccc(Cl)cc3)c(O)c2S1 (stereo not given) | > 93.7
87 | N#Cc1cccc(-n2nc3c(c2O)SCC3)c1 | 57.5
88 | Oc1c2c(nn1-c1ccc(Cl)cc1)CSC2 | 831
89 | Oc1c2c(nn1-c1ccc(Cl)c(Cl)c1)CSC2 | > 87.1

target: T3, UDP-N-acetylmuramoylalanine--D-glutamate ligase (Staphylococcus aureus, UniProt P0A091); experiment: In vitro inhibitory activity against Staphylococcus aureus UDP-N-acetylmuramoyl-L-alanyl-D-glutamate synthetase; conditions: not given
T3 sequence (P0A091 whole entry): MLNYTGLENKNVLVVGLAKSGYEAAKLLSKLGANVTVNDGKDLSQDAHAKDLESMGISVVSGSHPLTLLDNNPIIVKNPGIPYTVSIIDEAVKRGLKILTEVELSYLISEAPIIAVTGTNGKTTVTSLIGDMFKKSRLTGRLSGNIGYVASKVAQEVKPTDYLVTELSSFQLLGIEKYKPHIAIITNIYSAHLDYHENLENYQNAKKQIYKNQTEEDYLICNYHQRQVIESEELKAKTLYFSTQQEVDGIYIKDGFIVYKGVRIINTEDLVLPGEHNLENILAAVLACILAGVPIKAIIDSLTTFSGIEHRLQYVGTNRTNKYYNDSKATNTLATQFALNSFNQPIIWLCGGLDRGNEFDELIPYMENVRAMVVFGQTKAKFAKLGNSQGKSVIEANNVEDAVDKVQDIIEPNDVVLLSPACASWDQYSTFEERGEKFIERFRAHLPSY

Row | Structure (SMILES) | IC50 [µM]
90 | N#Cc1ccc(-n2nc3c(c2O)SCC3)cc1 | 49.3
91 | NC(=O)c1cccc(-n2nc3c(c2O)SCC3)c1 | 47.8
92 | Oc1c2c(nn1-c1ccc(Cl)cc1)CCS2 | 45.5
93 | Oc1c2c(nn1-c1ccc(Cl)c(Cl)c1)CCS2 | 48.8
94 | CC1Cc2nn(-c3ccc(Cl)cc3)c(O)c2S1 (stereo not given) | 64.1
95 | N#Cc1cccc(-n2nc3c(c2O)SCC3)c1 | 46.9
